In patent publication US20140113824A1, “BICYCLIC (THIO)CARBONYLAMIDINES” (BAYER INTELLECTUAL PROPERTY GMBH, priority 2011, published 2014):
Like-named read-outs stand apart in the source and are kept apart here.

Experiments:
Assay type in all cases: in vivo
[1] = test system: green peach aphid (Myzus persicae); assay: Myzus test (MYZUPE spray treatment); conditions: for pest or weed control at 500 g/ha: Myzus persicae, foliar, 144 h, read-out: effect in % (aphids killed)
Protocol: 2. Myzus Test (MYZUPE Spray Treatment)
(§1) Solvents: 78.0 parts by weight of acetone • • 1.5 parts by weight of dimethylformamide Emulsifier: 0.5 part by weight of alkylaryl polyglycol ether
(§2) To produce a suitable preparation of active compound, 1 part by weight of active compound is mixed with the stated amounts of solvent and emulsifier, and the concentrate is diluted with emulsifier-containing water to the desired concentration.
Disks of Chinese cabbage leaves (Brassica pekinensis) infested by all stages of the green peach aphid (Myzus persicae) are sprayed with an active compound preparation of the desired concentration.
After 6 days, the effect in % is determined. 100% means that all of the aphids have been killed; 0% means that none of the aphids have been killed.

Lucilia cuprina larvae = assay: Lucilia cuprina test (LUCICU); conditions: 100 ppm; treated horse meat; after 48 hours
Protocol: 5. Lucilia cuprina Test (LUCICU)
(§3) Solvent: dimethyl sulfoxide
(§4) To produce a suitable preparation of active compound, 10 mg of active compound are mixed with 0.5 ml of dimethyl sulfoxide, and the concentrate is diluted with water to the desired concentration.
Vessels containing horse meat treated with the active compound preparation of the desired concentration are populated with about 20 Lucilia cuprina larvae.
After 48 hours, the kill in % is determined 100% means that all larvae have been killed; 0% means that no larvae have been killed.

[2] = test system: larvae of the mustard beetle (Phaedon cochleariae); assay: Phaedon test (PHAECO spray treatment); conditions: application rate 500 g/ha; spray on Chinese cabbage leaf disks; after 7 days
Protocol: 1. Phaedon Test (PHAECO Spray Treatment)
as §1, §2
Disks of Chinese cabbage leaves (Brassica pekinensis) are sprayed with an active compound preparation of the desired concentration and, after drying, populated with larvae of the mustard beetle (Phaedon cochleariae).
After 7 days, the effect in % is determined. 100% means that all beetle larvae have been killed; 0% means that none of the beetle larvae have been killed.

Cooperia curticei larvae = assay: Cooperia curticei test (COOPCU); conditions: 100 ppm in Ringer solution; after 5 days
Protocol: 7. Cooperia curticei Test (COOPCU)
as §3
To produce a suitable preparation of active compound, 10 mg of active compound are mixed with 0.5 ml of dimethyl sulfoxide, and the concentrate is diluted with Ringer solution to the desired concentration. Vessels containing the active compound preparation of the desired concentration are populated with about 40 Cooperia curticei larvae.
After 5 days, the kill in % is determined. 100% means that all larvae have been killed; 0% means that no larvae have been killed.

adult Musca domestica = assay: Musca domestica test (MUSCDO); conditions: 100 ppm; treated sponge; after 2 days
Protocol: 6. Musca domestica Test (MUSCDO)
as §3, §4
Vessels containing a sponge treated with the active compound formulation of the desired concentration are populated with adult Musca domestica.
After 2 days, the kill in % is determined. 100% means that all of the flies have been killed; 0% means that none of the flies have been killed.

[3] = test system: adult fleas (Ctenocephalides felis); assay: Ctenocephalides felis; oral (CTECFE); conditions: 100 ppm in citrated cattle blood, after 2 days
Protocol: 4. Ctenocephalides felis; Oral (CTECFE)
Solvents: 1 part by weight of dimethyl sulfoxide
To produce a suitable preparation of active compound, 10 mg of active compound are mixed with 0.5 ml of dimethyl sulfoxide. A portion of the concentrate is diluted with citrated cattle blood, and the desired concentration is prepared.
About 20 unfed adult fleas (Ctenocephalides felis) are placed into a chamber which is closed at the top and bottom with gauze. A metal cylinder whose bottom end is closed with parafilm is placed onto the chamber. The cylinder contains the blood/active compound preparation, which can be taken up by the fleas through the parafilm membrane.
After 2 days, the kill in % is determined 100% means that all of the fleas have been killed; 0% means that none of the fleas have been killed.

[4] = test system: greenhouse red spider mite (Tetranychus urticae); assay: Tetranychus test, OP-resistant (TETRUR spray treatment); conditions: application rate 100 g/ha; spray on infested bean leaf disks; after 6 days
Protocol: 3. Tetranychus Test, OP-Resistant (TETRUR Spray Treatment)
as §1, §2
Disks of bean leaves (Phaseolus vulgaris) which are infested by all stages of the greenhouse red spider mite (Tetranychus urticae) are sprayed with an active compound preparation of the desired concentration.
After 6 days, the effect in % is determined. 100% here means that all of the spider mites have been killed. 0% means that none of the spider mites have been killed.

[5] = application rate 500 g/ha, spray on infested Chinese cabbage leaf disks, after 6 days

Row | SMILES | kill in % (larvae killed) (Lucilia cuprina larvae) | pest or weed control at 500 g/ha ([1]; in Brassica rapa) | effect in % (beetle larvae killed) [2] | other results
1 | O=c1nc2n(Cc3ccc(C(F)(F)F)nc3)cccc-2o1 [Example I-1, 4-(6-Trifluoromethylpyridin-3-ylmethyl)oxazolo[4,5-b]pyridin-2(4H)-one] | – | – | – | pest or weed control at 500 g/ha [1, 5]: 100%
2 | O=c1nc2n(Cc3cnc(Cl)c(Cl)c3)cccc-2o1 [Example I-2, 4-(5,6-Dichloropyridin-3-ylmethyl)oxazolo[4,5-b]pyridin-2(4H)-one] | 100% | 100% | 100% | –
3 | O=c1nc2n(Cc3ccc(Cl)nc3)cccc-2o1 [Example I-3, 4-(6-Chloropyridin-3-ylmethyl)oxazolo[4,5-b]pyridin-2(4H)-one] | 100% | 100% | 100% | kill in % (larvae killed) (Cooperia curticei larvae): 80%
4 | O=c1nc2n(Cc3cnc(Cl)c(F)c3)cccc-2o1 [Example I-4, 4-(6-Chloro-5-fluoropyridin-3-ylmethyl)oxazolo[4,5-b]pyridin-2(4H)-one] | 100% | 100% | 100% | kill in % (flies killed) (adult Musca domestica): 80%
5 | Cc1cnc(Cn2cccc3oc(=O)nc2-3)cn1 [Example I-5, 4-(5-Methylpyrazin-2-ylmethyl)oxazolo[4,5-b]pyridin-2(4H)-one] | – | – | – | pest or weed control at 500 g/ha [1, 5]: 100%
6 | O=c1nc2n(Cc3cnc(Cl)s3)cccc-2o1 [Example I-6, 4-(2-Chloro-1,3-thiazol-5-ylmethyl)oxazolo[4,5-b]pyridin-2(4H)-one] | 100% | 100% | 100% | kill in % (fleas killed) [3]: 80%
7 | O=c1nc2n(Cc3ccc(F)nc3)cccc-2o1 [Example I-9, 4-(6-Fluoropyridin-3-ylmethyl)oxazolo[4,5-b]pyridin-2(4H)-one] | 100% | 100% | – | –
8 | O=c1nc2n(Cc3ccc(Br)nc3)cccc-2o1 [Example I-10, 4-(6-Bromopyridin-3-ylmethyl)oxazolo[4,5-b]pyridin-2(4H)-one] | – | 100% | 100% | –
9 | O=c1nc2n(Cc3ccc(Cl)nc3)cc(Br)cc-2o1 [Example I-11, 6-Bromo-4-(6-chloropyridin-3-ylmethyl)oxazolo[4,5-b]pyridin-2(4H)-one] | – | 100% | – | –
10 | O=C1N=C2C(CCCN2Cc2ccc(Cl)nc2)O1 (stereo not shown) [Example I-16, 4-(6-Chloropyridin-3-ylmethyl)-5,6,7,7a-tetrahydrooxazolo[4,5-b]-pyridin-2(4H)-one] | – | 100% | 100% | effect in % (spider mites killed) [4]: 100%
11 | CC(=O)N(Cc1ccc(Cl)nc1)c1ncccc1OCc1ccc(Cl)nc1 [Example I-16a, 2-[(N-acetyl, N′-(6-chloropyridin-3-ylmethyl)amino)]-3-(6-chloropyridin-3-ylmethoxy)pyridine] | – | – | – | effect in % (spider mites killed) [4]: 90%
12 | O=c1oc2cccnc2n1Cc1cnc(Cl)c(Cl)c1 [IV-2, 3-(5,6-dichloropyridin-3-ylmethyl)oxazolo[4,5-b]-2(3H)-one] | – | – | – | effect in % (aphids killed) [1, 5]: 100%
13 | O=c1oc2cccnc2n1Cc1ccc(C(F)(F)F)nc1 [IV-I, 3-(6-trifluoromethylpyridin-3-ylmethyl)oxazolo[4,5-b]-2(3H)-one] | – | – | – | effect in % (aphids killed) [1, 5]: 90%
